Assay results taken from patent EP1614683B1, “Indazole compounds and pharmaceutical compositions for inhibiting protein kinases, and methods for their use” (priority 1999, dated 2001).
Read-outs that look alike come from different tables or passages of the source. Each block holds one compound with its values, some of them ahead of it.

How the values were obtained:
[1] = molecular target: LCK tyrosine kinase (Homo sapiens, UniProt P06239, C224D/P223M); test: LCK spectrophotometric assay; format: biochemical; details: read-out: Lck-P* (% inhibition)
Experimental: The spectrophotometric assay was carried out as described above for VEGF-R2, except for the following changes in concentration: LCK = 60 nM, MgCl2 = 0 mM, poly(E4Y1) = 20 mM.

[2] = test system: human umbilical vein endothelial cells (HUVEC); test: HUVEC proliferation assay (VEGF-stimulated, MTT); format: cell-based; details: Table 1
Experimental: This assay determines the ability of a test compound to inhibit the growth factor-stimulated proliferation of human umbilical vein endothelial cells ("HUVEC"). HUVEC cells (passage 3-4, Clonetics, Corp.) were thawed into EGM2 culture medium (Clonetics Corp) in T75 flasks. Fresh EGM2 medium was added to the flasks 24 hours later. Four or five days later, cells were exposed to another culture medium (F12K medium supplemented with 10% fetal bovine serum (FBS), 60 µg/mL endothelial cell growth supplement (ECGS), and 0.1 mg/mL heparin). Exponentially-growing HUVEC cells were used in experiments thereafter. Ten to twelve thousand HUVEC cells were plated in 96-well dishes in 100 µl of rich, culture medium (described above). The cells were allowed to attach for 24 hours in this medium. The medium was then removed by aspiration and 105 µl of starvation media (F12K+1% FBS) was added to each well. After 24 hours, 15 µl of test agent dissolved in 1% DMSO in starvation medium or this vehicle alone was added into each treatment well; the final DMSO concentration was 0.1%. One hour later, 30 µl of VEGF (30 ng/mL) in starvation media was added to all wells except those containing untreated controls; the final VEGF concentration was 6 ng/mL. Cellular proliferation was quantified 72 hours later by MTT dye reduction, at which time cells were exposed for 4 hours MTT (Promega Corp.).

[3] = in vitro; format: in vitro ADME, human
Experimental: Compound metabolism in human liver microsomes was measured by LC-MS analytical assay procedures as follows. First, human liver microsomes (HLM) were thawed and diluted to 5 mg/mL with cold 100 mM potassium phosphate (KPO4) buffer. Appropriate amounts of KPO4 buffer, NADPH-regenerating solution (containing B-NADP, glucose-6-phosphate, glucose-6-phosphate dehydrogenase, and MgCl2), and HLM were preincubated in 13 x 100 mm glass tubes at 37 C for 10 min. (3 tubes per test compound--triplicate). Test compound (5 µM final) was added to each tube to initiate reaction and was mixed by gentle vortexing, followed by incubation at 37 °C. At t=0, 2 h, a 250-µL sample was removed from each incubation tube to separate 12 x 75 mm glass tubes containing 1 mL ice-cold acetonitrile with 0.05 µM reserpine. […] Supernatant was transferred to new 12 x 75 mm glass tubes and evaporated by Speed-Vac centrifugal vacuum evaporator. Samples were reconstituted in 200 µL 0.1 % formic acid/acetonitrile (90/10) and vortexed vigorously to dissolve. The samples were then transferred to separate polypropylene microcentrifuge tubes and centrifuged at 14000 x g for 10 min. (Fisher Micro 14, S/N M0017580). For each replicate (#1-3) at each timepoint (0 and 2 h), an aliquot sample of each test compound was combined into a single HPLC vial insert (6 total samples) for LC-MS analysis, which is described below.

[4] = molecular target: human FGF-R1 (Homo sapiens, UniProt P11362, C488A/C584S/L457V); test: FGF-R spectrophotometric assay; format: biochemical; details: read-out: FGF-P* (% inhibition)
Experimental: The spectrophotometric assay was carried out as described above for VEGF-R2, except for the following changes in concentration: FGF-R = 50 nM, ATP = 2 mM, and poly(E4Y1) =15 mM.

[5] = molecular target: unphosphorylated VEGF-R2Δ50 (Homo sapiens, UniProt P35968, DEL940-989/E990V); test: biochemical; details: for inhibition at 0.05 µM: read-out: FLVK ** (% inhibition); for inhibition at 1 µM: read-out: FLVK* (% inhibition)
[6] = Table 1, compound concentration 1 µM
[7] = Homo sapiens, HUVEC, + albumin, read-out: HUVEC + albumin IC50
[8] = Homo sapiens, HUVEC, read-out: HUVEC IC50
[9] = human liver microsomes, 5 µM test compound, 37 °C, 2 h

Sequence of unphosphorylated VEGF-R2Δ50 (P35968 with tags, fused parts or gaps DEL940-989/E990V limits assumed): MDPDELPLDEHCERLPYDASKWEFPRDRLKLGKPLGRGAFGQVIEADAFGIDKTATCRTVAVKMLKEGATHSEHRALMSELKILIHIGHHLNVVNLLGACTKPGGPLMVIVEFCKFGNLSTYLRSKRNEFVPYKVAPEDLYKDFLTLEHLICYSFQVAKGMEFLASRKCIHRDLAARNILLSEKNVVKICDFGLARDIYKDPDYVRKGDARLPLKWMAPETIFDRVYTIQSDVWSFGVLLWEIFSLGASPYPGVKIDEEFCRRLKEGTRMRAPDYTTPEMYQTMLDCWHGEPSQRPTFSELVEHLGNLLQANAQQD
Sequence of human FGF-R1 (P11362 456-766 L457V/C488A/C584S): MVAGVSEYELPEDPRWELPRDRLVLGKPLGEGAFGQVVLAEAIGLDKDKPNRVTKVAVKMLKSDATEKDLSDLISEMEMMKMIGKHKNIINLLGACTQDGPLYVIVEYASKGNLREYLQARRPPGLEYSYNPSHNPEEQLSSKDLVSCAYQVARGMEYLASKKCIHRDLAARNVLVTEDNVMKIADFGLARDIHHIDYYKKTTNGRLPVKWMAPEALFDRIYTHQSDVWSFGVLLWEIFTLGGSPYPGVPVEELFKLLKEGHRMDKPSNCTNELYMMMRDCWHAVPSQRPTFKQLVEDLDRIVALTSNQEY
Sequence of LCK tyrosine kinase (P06239 223-509 P223M/C224D): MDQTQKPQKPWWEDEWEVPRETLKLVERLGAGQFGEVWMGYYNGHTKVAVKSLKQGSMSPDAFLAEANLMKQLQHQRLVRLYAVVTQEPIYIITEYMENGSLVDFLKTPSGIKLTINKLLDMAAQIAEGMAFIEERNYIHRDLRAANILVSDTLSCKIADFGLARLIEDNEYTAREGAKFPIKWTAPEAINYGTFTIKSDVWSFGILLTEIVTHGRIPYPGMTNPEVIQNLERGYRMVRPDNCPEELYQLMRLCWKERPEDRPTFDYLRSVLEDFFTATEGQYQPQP

SMILES: CN(c1cccc(NC(=O)c2ccccc2)c1)c1ccc2c(/C=C/c3ccccc3)n[nH]c2c1 [12(b), N-{3-[Methyl-(3-styryl-1H-indazol-6-yl)-amino]-phenyl}-benzamide]
inhibition at 1 µM [1, 6]: 32%
IC50 [2, 7]: 44 nM
IC50 [2, 8]: 4.8 nM
remaining at 2 h, 5 µM ([3]; human, microsomes): 29%

SMILES: O=C(Nc1cccc(C(=O)c2ccc3c(/C=C/c4ccccc4)n[nH]c3c2)c1)OCc1ccccc1 [19(c), [3-(3-Styryl-1H-indazole-6-carbonyl)-phenyl]-carbamic acid benzyl ester]
inhibition at 1 µM [4, 6]: 68%
inhibition at 1 µM [1, 6]: 50%
IC50 [2, 8]: 17 nM

SMILES: O=C(c1cccc(NC(=O)c2cccc(Cl)n2)c1)c1ccc2c(/C=C/c3ccccc3)n[nH]c2c1 [19(m), 6-[3-(6-chloropyridin-2-ylcarboxamido)benzoyl]-3-E-styryl-1H-indazole]
inhibition at 1 µM [4, 6]: 23%
inhibition at 1 µM [1, 6]: 35%
IC50 [2, 7]: 94 nM
% remain (HLM, 2 h) [3, 9]: 61%

SMILES: O=C(Nc1cccc(C(=O)c2ccc3c(/C=C/c4ccccc4)n[nH]c3c2)c1)c1ccnc(Cl)c1 [19(o), 6-[3-(2-chloropyridin-4-ylcarboxamido)benzoyl]-3-E-styryl-1H-indazole]
inhibition at 0.05 µM [5]: 89%

SMILES: O=C(Nc1cccc(Sc2ccc3c(/C=C/c4ccccc4)n[nH]c3c2)c1)c1ccccc1 [20(b), 6-(3-(Benzoylamido)-phenylsulfanyl)-3-styryl-1H-indazole]
inhibition at 1 µM [4, 6]: 28%
inhibition at 1 µM [1, 6]: 23%
IC50 [2, 8]: 8.2 nM

SMILES: O=C(Nc1cccc(Nc2ccc3c(/C=C/c4ccccc4)n[nH]c3c2)c1)c1ccccc1 [Example 13, N-[3-(3-Styryl-1H-indazol-6-ylamino)-phenyl)-benzamide]
inhibition at 1 µM [4]: 74%
inhibition at 1 µM [1]: 61%
IC50 [2, 7]: 28 nM
IC50 [2, 8]: 3.9 nM

% remain (HLM, 2 h) ([3]; human, microsomes, 2 h, 5 µM): 70%
SMILES: CNC(=O)c1ccccc1Nc1ccc2c(/C=C/c3ccccn3)n[nH]c2c1 [Example 39(a), 6-[2-(Methylcarbamoyl)phenylanzino]-3-E-[2-(pyridin-2-yl)ethenyl]-1H-indazole]

% remain (HLM, 2 h) ([3]; human, microsomes, 2 h, 5 µM): 2%
SMILES: O=CNc1ccccc1/C=C/c1n[nH]c2cc(C(=O)c3cccc(NC(=O)c4ccccc4)c3)ccc12 [Example 43, 6-(3-Benzamidobenzoyl)-3-E-[2-(2-formamidophenyl)ethenyl]-1H-indazole]

% remain (HLM, 2 h) ([3]; human, microsomes, 2 h, 5 µM): 97%
SMILES: O=C(c1cccc(NC(=O)c2cccc3[nH]ccc23)c1)c1ccc2c(/C=N/n3cccc3)n[nH]c2c1 [Example 45(a), 6-[3-(Indol-4-ylcarboxamido)benzoyl]-3-E-[N-(pyrrol-1-yl)iminomethyl]-1H-indazole]

inhibition at 0.05 µM [5]: 5%
SMILES: C#CCNC(=O)c1ccccc1C(=O)c1ccc2c(/C=C/c3ccccn3)n[nH]c2c1 [Example 56]

SMILES: C(=C\c1n[nH]c2cc(-c3cccnc3)ccc12)/c1ccccc1 [Reference Example 27(e), 6-pyridin-3-yl-3-E-styryl-1H-indazole]
inhibition at 1 µM [5]: 34%

SMILES: C(=C\c1n[nH]c2cc(-c3ccncc3)ccc12)/c1ccccc1 [Reference Example 27(f)]
inhibition at 1 µM [5]: 49%

SMILES: Oc1ccc(-c2ccc3c(/C=C/c4ccccc4)n[nH]c3c2)cn1 [Reference Example 28(c), 6-(2-hydroxypyridin-5-yl)-3-E-styryl-1H-indazole]
inhibition at 1 µM [5]: 34%

SMILES: COc1cccc(/C=C/c2n[nH]c3cc(-c4ccncc4)ccc23)c1 [Reference Example 29(e)]
inhibition at 1 µM [5]: 33%

SMILES: C(=C\c1n[nH]c2cc(-c3ccncc3)ccc12)/c1nc2ccccc2[nH]1 [Reference Example 29(q), 6-pyrid-4-yl-3-E-[2-(benzimidazol-2-yl)ethenyl]-1H-indazole]
inhibition at 1 µM [5]: 11%

SMILES: O=C(Nc1cccc(Oc2ccc3c(/C=C/c4ccco4)n[nH]c3c2)c1)c1ccccc1 [Reference Example 30(c), 6-[3-benzamidophenoxy]-3-[2-(fur-2-yl)ethenyl]-1H-indazole]
inhibition at 1 µM [4, 6]: 82%
inhibition at 1 µM [1, 6]: 44%
IC50 [2, 7]: 21 nM
IC50 [2, 8]: 2.5 nM

SMILES: CCn1nc(C)cc1C(=O)Nc1cccc(Oc2ccc3c(/C=C/c4ccccc4)n[nH]c3c2)c1 [Reference Example 30(e), 6-[3-((1-Ethyl-3-methyl-1H-pyrazol-5-yl)carboxamido)phenoxy]-3-E-stryrylindazole]
inhibition at 1 µM [4, 6]: 92%
inhibition at 1 µM [1, 6]: 62%
IC50 [2, 7]: 29 nM

SMILES: NC(=O)c1ccccc1Sc1ccc2c(/C=C/c3ccccn3)n[nH]c2c1 [Reference Example 35(d), 6-(2-Carbamoylphenylsulfanyl)-3-E-[2-(pyridin-2-yl)ethenyl]-1H-indazole]
inhibition at 0.05 µM [5]: 76%

SMILES: O=C(NCc1cccc(F)c1)c1ccccc1Sc1ccc2c(/C=C/c3ccccn3)n[nH]c2c1 [Reference Example 35(ff)]
inhibition at 1 µM [4, 6]: 75%
inhibition at 1 µM [1, 6]: 25%
IC50 [2, 7]: 5.8 nM
% remain (HLM, 2 h) [3, 9]: 31%

SMILES: CNCCNC(=O)c1ccccc1Sc1ccc2c(/C=C/c3ccccn3)n[nH]c2c1 [Reference Example 35(gg), 6-[2-(2-(methylamino)ethylcarbamoyl)phenylsulfanyl]-3-E-[2-(pyridin-2-yl)ethenyl]-1H-indazole]
inhibition at 0.05 µM [5]: 23%

SMILES: O=C(NNC(=O)c1ccccc1Sc1ccc2c(/C=C/c3ccccn3)n[nH]c2c1)c1cccs1 [Reference Example 35(m), 6-[2-((Thien-2-ylhydrazido)carbonyl)phenylsulfanyl]-3-E-[2-(pyridin-2-yl)ethenyl]-1H-indazole]
inhibition at 1 µM [4, 6]: 82%
inhibition at 1 µM [1, 6]: 61%
IC50 [2, 7]: 35 nM

SMILES: CONC(=O)c1ccccc1Sc1ccc2c(/C=C/c3ccccn3)n[nH]c2c1 [Reference Example 35(r), 6-[2-(methoxycarbamoyl)phenylsulfanyl]-3-E-[2-(pyridin-2-yl)ethenyl]-1H-indazole]
inhibition at 1 µM [1, 6]: 16%
IC50 [2, 7]: 2.3 nM
IC50 [2, 8]: 0.36 nM
% remain (HLM, 2 h) [3, 9]: 51%

SMILES: N#CCNC(=O)c1ccccc1Sc1ccc2c(/C=C/c3ccccn3)n[nH]c2c1 [Reference Example 35(w), 6-[2-(Cyanomethylcarbamoyl)phenylsulfanyl]-3-E-[2-(pyridin-2-yl)ethenyl]-1H-indazole]
IC50 [2, 7]: 35 nM
inhibition at 0.05 µM [5]: 59%

SMILES: O=C(Nc1cccc(C(=O)c2ccc3c(/C=C/c4ccccn4)n[nH]c3c2)c1)c1ccncc1 [Reference Example 41(b), 6-[3-(pyridin-4-ylcarboxamido)benzoyl]-3-E-[2-(pyridin-2-yl)ethenyl]-1H-indazole]
inhibition at 1 µM [4, 6]: 31%
inhibition at 1 µM [1, 6]: 24%
IC50 [2, 7]: 9.8 nM
IC50 [2, 8]: 2 nM
remaining at 2 h, 5 µM ([3]; human liver microsomes, 5 µM test compound, 37 °C, 2 h, read-out: % remain (HLM, 2 h)): 80%

SMILES: CC(=O)c1ccc(C(=O)Nc2cccc(C(=O)c3ccc4c(/C=C/c5ccccn5)n[nH]c4c3)c2)s1 [Reference Example 41(e), 6-[3-((5-acetylthien-2-yl)carboxamido)benzoyl]-3-E-[2-(pyridin-2-yl)ethenyl]-1H-indazole]
inhibition at 1 µM [4, 6]: 31%
inhibition at 1 µM [1, 6]: 21%
IC50 [2, 7]: 5.6 nM
IC50 [2, 8]: 0.15 nM
IC50 ([2]; + albumin, read-out: HUVEC + albumin IC50): 6.1 nM
% remain (HLM, 2 h) [3, 9]: 22%

SMILES: COc1cc(C(=O)Nc2cccc(C(=O)c3ccc4c(/C=C/c5ccccn5)n[nH]c4c3)c2)cc(Cl)n1 [Reference Example 41(u), 6-[3-((2-chloro-6-methoxypyridin-4-yl)carboxamido)benzoyl]-3-E-[2-(pyridin-2-yl)ethenyl]-1H-indazole]
inhibition at 1 µM [4, 6]: 74%
inhibition at 1 µM [1, 6]: 54%
IC50 [2, 7]: 7.9 nM
